Measurements reported in US6924251B1, “Substituted benzoylcyclohexandiones” (Bayer Aktiengesellschaft, priority 1998, dated 2005).

Key:
Abutilon = test: Pre-emergence test/greenhouse; format: in vivo; conditions: after three weeks
Description: (§1) • Solvent: 5 parts by weight of acetone • Emulsifier: 1 part by weight of alkylaryl polyglycol ether
(§2) To produce a suitable preparation of active compound, 1 part by weight of active compound is mixed with the stated amount of solvent, the stated amount of emulsifier is added and the concentrate is diluted with water to the desired concentration.
(§3) Seeds of the test plants are sown in normal soil. After approximately 24 hours, the soil is sprayed with the preparation of active compound such that the particular amount of active compound desired is applied per unit area. The concentration of the spray liquor is chosen so that the particular amount of active compound desired is applied in 1000 liters of water per hectare.
(§4) After three weeks, the degree of damage to the plants is assesssed in % damage in comparison to the development of the untreated control.

Cyperus = test: Pre-emergence test/greenhouse; format: in vivo; conditions: after three weeks
Description: as §1, §2, §3, §4

weeds [1] = test: Pre-emergence test, activity against weeds; format: in vivo
Description: as §1, §2, §3, §4

[2] = logP determination by HPLC (reversed-phase C18), EEC Directive 79/831 Annex V.A8; conditions: reversed-phase C18 HPLC column
Maize [3] = test: Pre-emergence test/greenhouse; format: in vivo; conditions: 500 g ai./ha, after three weeks
Description: as §1, §2, §3, §4

Amaranthus = test: Post emergence test/greenhouse; format: in vivo; conditions: after three weeks
Description: as §1, §2
(§5) Test plants which have a height of 5-15 cm are sprayed with the preparation of active compound in such a way that the particular amounts of active compound desired are applied per unit area. The concentration of the spray liquor is chosen so that the particular amounts of active compound desired are applied in 1000 1 of water/ha.
as §4

Maize [4] = test: Post emergence test/greenhouse; format: in vivo; conditions: after three weeks
Description: as §1, §2, §5, §4

Sinapis = test: Post emergence test/greenhouse; format: in vivo; conditions: after three weeks
Description: as §1, §2, §5, §4

weeds [5] = test: Post-emergence test, activity against weeds; format: in vivo
Description: as §1, §2, §5, §4

Structure (SMILES)	% damage Abutilon (Abutilon; 1000 g ai./ha)	% damage Cyperus (Cyperus; 1000 g ai./ha)	activity against weeds (weeds [1])	chromatographic logP ([2]; pH 2)	% damage Abutilon (Abutilon; 500 g ai./ha)	% damage Cyperus (Cyperus; 500 g ai./ha)	% damage Maize (Maize [3])	% damage Amaranthus (Amaranthus; 500 g ai./ha)	% damage Maize (Maize [4]; 500 g ai./ha)	% damage Sinapis (Sinapis; 500 g ai./ha)	activity against weeds (weeds [5])	chromatographic logP [2]	% damage Amaranthus (Amaranthus; 1000 g ai./ha)	% damage Maize (Maize [4]; 1000 g ai./ha)	% damage Sinapis (Sinapis; 1000 g ai./ha)
CCOc1nn(Cc2cc(C(F)(F)F)ccc2C(=O)C2C(=O)CCCC2=O)c(=O)n1C [compound 1, 5-ethoxy-4-methyl-2-[2-(2,6-dioxo-cyclohexyl-carbonyl)-5-trifluoromethyl-benzyl]-2,4-dihydro-3H-1,2,4-triazol-3-one]	100%	100%	strong activity	2.7											
CCOn1c(CC)nn(Cc2cc(Br)ccc2C(=O)C2C(=O)CCCC2=O)c1=O [compound 10]			strong activity		90%	100%	0%	95%	20%	80%	strong activity	2.68			
CCOc1nn(Cc2cc(Br)ccc2C(=O)C2C(=O)CCCC2=O)c(=O)n1C [compound 15]											strong activity		90%	0%	80%
